{"source": "paper PMC7452880", "about": "(Clinical Drug Investigation, 2020)", "key": {"[1]": {"settings": "humans, over 24 h; cited from earlier work"}, "[2]": {"assay": "Safety assessments", "assay_type": "in vivo, human", "settings": "per treatment period; for incidences of changes in diastolic blood pressure / incidences of changes in systolic blood pressure: potentially clinically relevant changes from baseline; for Patients who experienced AEs considered to be related to the study drug: treatment-emergent"}, "[3]": {"settings": "cited from earlier work"}, "[4]": {"target": "T1, human MRP4 (Homo sapiens, UniProt O15439)", "T1 sequence (O15439 1-1325)": "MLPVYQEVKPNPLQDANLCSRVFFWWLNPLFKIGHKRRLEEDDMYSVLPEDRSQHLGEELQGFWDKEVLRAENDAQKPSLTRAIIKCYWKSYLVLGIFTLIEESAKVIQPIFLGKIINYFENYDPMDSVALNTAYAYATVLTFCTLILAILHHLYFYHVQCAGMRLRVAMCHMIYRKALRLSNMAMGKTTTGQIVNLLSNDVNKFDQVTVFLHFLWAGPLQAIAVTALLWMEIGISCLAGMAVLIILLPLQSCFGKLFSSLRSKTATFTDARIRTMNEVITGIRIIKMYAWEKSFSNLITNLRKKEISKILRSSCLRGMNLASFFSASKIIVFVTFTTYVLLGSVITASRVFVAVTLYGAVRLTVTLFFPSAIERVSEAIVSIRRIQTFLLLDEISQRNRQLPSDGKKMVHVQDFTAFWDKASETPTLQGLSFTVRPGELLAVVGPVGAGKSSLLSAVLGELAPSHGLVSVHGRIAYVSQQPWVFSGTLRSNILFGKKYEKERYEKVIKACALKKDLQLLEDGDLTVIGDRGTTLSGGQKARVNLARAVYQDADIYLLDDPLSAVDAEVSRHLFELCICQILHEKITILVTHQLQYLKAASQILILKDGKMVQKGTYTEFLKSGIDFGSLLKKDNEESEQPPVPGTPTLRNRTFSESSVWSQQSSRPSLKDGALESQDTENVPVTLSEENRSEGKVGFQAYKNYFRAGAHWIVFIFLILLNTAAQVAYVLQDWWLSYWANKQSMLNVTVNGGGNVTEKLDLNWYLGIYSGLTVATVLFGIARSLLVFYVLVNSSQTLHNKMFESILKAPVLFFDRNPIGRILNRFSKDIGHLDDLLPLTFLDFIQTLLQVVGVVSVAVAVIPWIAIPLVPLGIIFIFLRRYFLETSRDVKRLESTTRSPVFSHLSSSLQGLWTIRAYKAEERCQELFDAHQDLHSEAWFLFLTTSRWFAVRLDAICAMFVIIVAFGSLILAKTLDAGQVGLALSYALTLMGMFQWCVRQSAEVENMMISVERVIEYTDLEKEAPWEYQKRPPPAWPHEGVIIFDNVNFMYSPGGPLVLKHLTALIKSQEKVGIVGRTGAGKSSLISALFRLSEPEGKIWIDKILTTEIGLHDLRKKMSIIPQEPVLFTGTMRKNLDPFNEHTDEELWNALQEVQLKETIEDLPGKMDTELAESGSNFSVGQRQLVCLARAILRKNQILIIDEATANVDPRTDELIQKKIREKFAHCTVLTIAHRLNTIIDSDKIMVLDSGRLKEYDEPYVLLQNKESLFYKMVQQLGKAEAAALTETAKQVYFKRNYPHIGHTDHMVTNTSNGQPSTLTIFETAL", "assay": "MRP4-mediated vesicular transport assay", "assay_type": "in vitro ADME", "settings": "membrane vesicles, peficitinib up to 100 μmol/L"}, "[5]": {"target": "tyrosine kinase 2", "settings": "cited from earlier work"}, "[6]": {"settings": "healthy male subjects; cited from earlier work"}, "[7]": {"test_system": "JAK3", "settings": "cited from earlier work"}, "[8]": {"target": "T2, human BCRP (Homo sapiens, UniProt Q9UNQ0)", "T2 sequence (Q9UNQ0 1-655)": "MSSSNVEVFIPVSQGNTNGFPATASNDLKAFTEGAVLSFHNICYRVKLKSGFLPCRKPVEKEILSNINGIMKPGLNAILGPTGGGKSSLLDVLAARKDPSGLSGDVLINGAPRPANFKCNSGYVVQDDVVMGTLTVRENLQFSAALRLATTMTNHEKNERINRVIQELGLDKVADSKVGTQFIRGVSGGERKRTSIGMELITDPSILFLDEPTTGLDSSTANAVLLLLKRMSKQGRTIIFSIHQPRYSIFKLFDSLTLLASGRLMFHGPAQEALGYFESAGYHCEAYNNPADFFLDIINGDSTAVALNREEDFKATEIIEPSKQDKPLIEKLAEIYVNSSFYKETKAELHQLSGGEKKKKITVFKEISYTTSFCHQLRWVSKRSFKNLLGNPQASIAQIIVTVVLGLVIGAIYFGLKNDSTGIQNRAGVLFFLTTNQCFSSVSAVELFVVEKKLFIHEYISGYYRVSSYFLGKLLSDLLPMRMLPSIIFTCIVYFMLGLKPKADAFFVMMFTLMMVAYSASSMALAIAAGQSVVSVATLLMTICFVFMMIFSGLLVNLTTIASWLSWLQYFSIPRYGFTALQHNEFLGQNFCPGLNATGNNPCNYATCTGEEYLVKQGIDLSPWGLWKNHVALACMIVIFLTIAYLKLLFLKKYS", "assay": "BCRP-mediated vesicular transport assay", "assay_type": "in vitro ADME"}, "[9]": {"test_system": "JAK1", "settings": "cited from earlier work"}, "[10]": {"target": "T3, OAT3 (Homo sapiens, UniProt Q8TCC7)", "T3 sequence (Q8TCC7 1-542)": "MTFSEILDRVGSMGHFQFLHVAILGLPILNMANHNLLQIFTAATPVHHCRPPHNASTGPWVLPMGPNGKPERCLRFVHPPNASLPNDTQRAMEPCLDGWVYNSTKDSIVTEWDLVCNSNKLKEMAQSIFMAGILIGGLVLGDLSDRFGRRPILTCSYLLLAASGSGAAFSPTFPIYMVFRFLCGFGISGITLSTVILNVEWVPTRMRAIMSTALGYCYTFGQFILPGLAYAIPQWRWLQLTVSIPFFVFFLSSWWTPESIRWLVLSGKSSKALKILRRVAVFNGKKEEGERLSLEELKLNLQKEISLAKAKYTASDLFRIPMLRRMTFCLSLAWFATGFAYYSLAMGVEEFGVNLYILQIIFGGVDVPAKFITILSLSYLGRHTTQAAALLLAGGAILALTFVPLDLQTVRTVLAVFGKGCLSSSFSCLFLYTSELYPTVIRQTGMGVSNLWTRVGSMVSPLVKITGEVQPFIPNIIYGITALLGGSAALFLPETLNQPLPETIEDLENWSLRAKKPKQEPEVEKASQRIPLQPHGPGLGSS", "assay": "OAT3-mediated inhibition assay in S2 cells", "assay_type": "in vitro ADME"}, "[11]": {"target": "T4, OAT1 (Homo sapiens, UniProt Q4U2R8)", "T4 sequence (Q4U2R8 1-563)": "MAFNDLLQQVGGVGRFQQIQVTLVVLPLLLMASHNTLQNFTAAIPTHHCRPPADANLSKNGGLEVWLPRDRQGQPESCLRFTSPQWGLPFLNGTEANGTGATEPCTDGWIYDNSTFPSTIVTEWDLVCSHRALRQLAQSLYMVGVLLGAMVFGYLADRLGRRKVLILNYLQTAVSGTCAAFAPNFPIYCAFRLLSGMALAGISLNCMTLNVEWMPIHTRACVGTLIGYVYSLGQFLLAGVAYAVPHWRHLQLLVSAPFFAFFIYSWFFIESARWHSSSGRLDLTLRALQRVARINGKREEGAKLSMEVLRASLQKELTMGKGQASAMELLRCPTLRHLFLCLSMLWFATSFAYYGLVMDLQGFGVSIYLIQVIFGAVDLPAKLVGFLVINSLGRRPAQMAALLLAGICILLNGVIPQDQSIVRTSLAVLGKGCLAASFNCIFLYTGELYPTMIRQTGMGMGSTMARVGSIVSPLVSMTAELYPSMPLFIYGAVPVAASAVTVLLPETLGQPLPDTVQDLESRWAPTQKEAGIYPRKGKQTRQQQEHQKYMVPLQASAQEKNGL", "assay": "OAT1-mediated inhibition assay in S2 cells", "assay_type": "in vitro ADME", "settings": "OAT1-expressing S2 cells"}, "[12]": {"test_system": "JAK2", "settings": "cited from earlier work"}, "[13]": {"settings": "human plasma; cited from earlier work"}, "[14]": {"assay_type": "in vivo, human"}}, "note": "Read-outs that look alike come from different tables or passages of the source."}
{"smiles": "CN(Cc1cnc2nc(N)nc(N)c2n1)c1ccc(C(=O)N[C@@H](CCC(=O)O)C(=O)O)cc1", "note": "[Methotrexate, reference compound]", "values": [{"measurement": "dose excreted unchanged in urine", "setting": "[1]", "value": "over 80%"}, {"measurement": "incidences of either high or low pulse rates", "setting": "[2]", "value": 2}, {"measurement": "incidences of changes in diastolic blood pressure", "setting": "[2]", "value": 7}, {"measurement": "incidences of changes in systolic blood pressure", "setting": "[2]", "value": 4}, {"measurement": "Nausea", "setting": "[2]; treatment-emergent AE", "value": "2 (13.3) n (%)"}, {"measurement": "Patients who experienced AEs considered to be related to the study drug", "setting": "[2]", "value": "2 (13.3) n (%)"}, {"measurement": "effect on the pharmacokinetics of tofacitinib", "setting": "[3]", "value": "did not significantly affect the pharmacokinetics of tofacitinib"}]}
{"smiles": "NC(=O)c1cnc2[nH]ccc2c1N[C@@H]1[C@@H]2CC3C[C@H]1C[C@@](O)(C3)C2", "note": "[Peficitinib]", "values": [{"measurement": "inhibitory effect on MRP4", "setting": "[4]", "value": "no significant inhibitory effects"}, {"measurement": "incidences of either high or low pulse rates", "setting": "[2]", "value": 4}, {"measurement": "incidences of changes in diastolic blood pressure", "setting": "[2]", "value": 9}, {"measurement": "incidences of changes in systolic blood pressure", "setting": "[2]", "value": 3}, {"measurement": "Flatulence", "setting": "[2]; treatment-emergent AE", "value": "4 (28.6) n (%)"}, {"measurement": "Patients who experienced AEs considered to be related to the study drug", "setting": "[2]", "value": "4 (28.6) n (%)"}, {"measurement": "IC50", "setting": "[5]", "value": 4.8, "unit": "nM"}, {"measurement": "dose excreted unchanged in urine", "setting": "[6]", "value": 14, "unit": "%"}, {"measurement": "oral dose excreted in feces", "setting": "[6]", "value": "approximately 57%"}, {"measurement": "oral dose excreted in urine", "setting": "[6]", "value": "Approximately 37%"}, {"measurement": "oral dose undergoing metabolism", "setting": "[6]", "value": "over 65%"}, {"measurement": "IC50", "setting": "[7]", "value": "[…]"}, {"measurement": "IC50", "setting": "[8]", "value": 13500, "unit": "nM"}, {"measurement": "IC50", "setting": "[9]", "value": 3.9, "unit": "nM"}, {"measurement": "IC50", "setting": "[10]", "value": 5010, "unit": "nM"}, {"measurement": "inhibitory effect on OAT1", "setting": "[11]", "value": "no significant inhibitory effects"}, {"measurement": "IC50", "setting": "[12]", "value": 5, "unit": "nM"}, {"measurement": "bound to protein", "setting": "[13]", "value": "76–78%"}, {"measurement": "day on which plasma concentrations reached steady state", "setting": "[14]; 100 mg BID from Day 3, contrast test of Ctrough", "value": "[…]"}, {"measurement": "decrease of peficitinib Cmax with methotrexate coadministration", "setting": "[14]; Day 8 vs Day 7, from geometric mean ratio", "value": 8, "unit": "%"}, {"measurement": "Cmax", "setting": "[14]; human, plasma, oral, 100 mg, individual maximum plasma Cmax, after 100 mg BID", "value": 405, "unit": "ng/mL"}]}
